Reference: US4180669A, “2-(N-phenethyl-4-piperidino)-5-pentyl resorcinol” (Abbott Laboratories, priority 1978, dated 1979)
Counter-ions that a name gives are not always drawn. Like-named read-outs stand apart in the source and are kept apart here.

Test system: pylorous ligated rats
Experiment: Antisecretory activity in the pylorous ligated rat model
Type: in vivo, male Sprague-Dawley rats
Conditions: for inhibition in vivo at 50 mg/kg / inhibition in vivo at 12.5 mg/kg / inhibition in vivo at 25 mg/kg / inhibition in vivo at 100 mg/kg: Rattus norvegicus, 4 h; for inhibition in vivo at 12.5 mg/kg: oral dose 12.5 mg/kg; for inhibition in vivo at 25 mg/kg: oral dose 25 mg/kg; for inhibition in vivo at 100 mg/kg: oral dose 100 mg/kg
Method: To determine the antisecretory activity of the present compounds, the compounds were tested for such activity in pylorous ligated rats. In this test, male Sprague-Dawley rats weighing 170-190 g. were fasted for 24 hours. Water was allowed ad libitum. All groups were comprised of six rats. […] Water was withheld after drug administration. Ligation of the pyrloric sphincter was performed under ether anesthesia, and four hours after ligation the animals were sacrificed with CO2. The stomach was dissected out and the contents were expelled into a graduated centrifuge tube. The samples were centrifuged and the volume, less debris, was measured. Sample aliquots were titrated with 0.05 N NaOH to determine acid concentration. Pepsin activity was determined on an auto analyzer using hemoglobin as the substrate by the method of Anson. Group means for volume, acid and pepsin concentrations, and pepsin outputs were compared for statistically significant differences from control means by Student's t-test.

[1] = oral dose 50 mg/kg, negative sign means stimulated, read-out: Percent inhibition of pepsin
[2] = oral dose 50 mg/kg, negative sign means stimulated, read-out: Percent inhibition of pepsin output
[3] = oral dose 50 mg/kg, read-out: Percent inhibition of acid output
[4] = oral dose 50 mg/kg, read-out: Percent inhibition of acidity
[5] = oral dose 50 mg/kg, read-out: Percent inhibition of volume
[6] = read-out: Percent inhibition of acid output
[7] = read-out: Percent inhibition of acidity
[8] = read-out: Percent inhibition of volume
[9] = negative sign means stimulated, read-out: Percent inhibition of pepsin
[10] = read-out: Percent inhibition of pepsin output
[11] = oral dose 50 mg/kg, negative sign means stimulated

Molecule | inhibition in vivo at 50 mg/kg [1] | inhibition in vivo at 50 mg/kg [2] | inhibition in vivo at 50 mg/kg [3] | inhibition in vivo at 50 mg/kg [4] | inhibition in vivo at 50 mg/kg [5] | inhibition in vivo at 100 mg/kg [6] | inhibition in vivo at 100 mg/kg [7] | inhibition in vivo at 100 mg/kg [8] | further results
CC(C)c1cc(O)c(C2=CCN(Cc3ccccc3)CC2)c(O)c1 [Example XI, 2-(N-Benzyl-1,2,3,6-tetrahydro-4-pyridyl)-5-isopropyl resorcinol hydrochloride] | -36% | 47.1% | 68.2% | 22.8% | 63.8% |  |  |  | 
CCCCCC(C)C(C)c1cc(O)c(C2=CCN(CCc3ccccc3)CC2)c(O)c1 (stereo not shown) [Example XX, 2-(N-Phenethyl-1,2,3,6-tetrahydro-4-pyridyl)-5-(1,2-dimethylheptyl) resorcinol hydrochloride] |  |  | 47.8% | 10.7% | 42.8% | 51.2% | 19.5% | 44.8% | inhibition in vivo at 12.5 mg/kg [6]: 9.7%; inhibition in vivo at 12.5 mg/kg [7]: 8.5%; inhibition in vivo at 12.5 mg/kg [8]: 2.6%; inhibition in vivo at 25 mg/kg [6]: 17.1%; inhibition in vivo at 25 mg/kg [7]: 1.7%; inhibition in vivo at 25 mg/kg [8]: 16.9%
CCCCCc1cc(O)c(C2=CCN(C)CC2)c(O)c1 [Example VIII, 2-(N-Methyl-1,2,3,6-tetrahydro-4-pyridyl)-5-pentyl resorcinol hydrochloride] | -2% | 55.9% | 74.4% | 41.5% | 57.4% |  |  |  | 
CCCCCC(C)C(C)c1cc(O)c(C2=CCNCC2)c(O)c1 (stereo not shown) [Example XV, 2-(1,2,3,6-Tetrahydro-4-pyridyl)-5-(1,2-dimethylheptyl) resorcinol hydrochloride] | 53.8% | 54.3% | 22.8% | 24.3% | -1.4% | 52.8% | 43.6% | 12.9% | inhibition in vivo at 100 mg/kg [9]: 34.5%; inhibition in vivo at 100 mg/kg [10]: 41.4%
CCCCCC(C)C(C)c1cc(O)c(C2=CCN(Cc3ccccc3)CC2)c(OC)c1 (stereo not shown) [Example XXVII, 2-(N-Benzyl-1,2,3,6-tetrahydro-4-pyridyl)-3-methoxy-5-(1,2-dimethylheptyl)phenol hydrochloride] | 12.1% | -8.6% | -27.8% | -5.6% |  |  |  |  | 
2-(N-Methyl-1,2,3,4-tetrahydro-4-pyridyl)-5-(methyl) resorcinol [IX] |  |  |  |  |  |  |  |  | Percent inhibition of acid output (oral dose 50 mg/kg): 31.7%; Percent inhibition of acidity (oral dose 50 mg/kg): 12.1%; Percent inhibition of volume (oral dose 50 mg/kg): 21.9%; Percent inhibition of pepsin [11]: -7.2%; Percent inhibition of pepsin output [11]: 17.0%
CCCCCc1cc(O)c(C2CCN(CCc3ccccc3)CC2)c(O)c1 [Example XXI, 2-(N-Phenethyl-4-piperidino)-5-pentyl resorcinol hydrochloride] | -6.2% | 56.4% | 64.1% | 15% | 58.2% | 66.6% | 16.1% | 61.8% | inhibition in vivo at 12.5 mg/kg [9]: 11.4%; inhibition in vivo at 12.5 mg/kg [6]: 0.5%; inhibition in vivo at 12.5 mg/kg [7]: -4%; inhibition in vivo at 12.5 mg/kg [10]: 19.9%; inhibition in vivo at 12.5 mg/kg [8]: 6.5%; inhibition in vivo at 25 mg/kg [9]: 11.4%; inhibition in vivo at 25 mg/kg [6]: 32.7%; inhibition in vivo at 25 mg/kg [7]: 5.8%; inhibition in vivo at 25 mg/kg [10]: 41.4%; inhibition in vivo at 25 mg/kg [8]: 31.2%; inhibition in vivo at 100 mg/kg [9]: -12.7%; inhibition in vivo at 100 mg/kg [10]: 60.6%
CCCCCC(C)C(C)c1cc(O)c(C2CCNCC2)c(OC)c1 (stereo not shown) [Example XXX, 2-(4-Piperidino)-3-methoxy-5-(1,2-dimethylheptyl)phenol hydrochloride] |  |  | 34.7% | 39.9% | -8.9% |  |  |  | 
